In US8394774B2, “Pesticidal compositions” (Dow AgroSciences, LLC., priority 2009, dated 2013):

How the values were obtained:
[1] = test system: beet armyworm (BAW; Spodoptera exigua: Lepidoptera); assay: 128-well diet tray assay on beet armyworm (BAW 50); assay type: in vivo; details: 144 h, read-out: BAW 50
Method: (§1) Bioassays on beet armyworm (BAW; Spodoptera exigua: Lepidoptera) were conducted using either a 96-well microtiter plate-based high throughput (HTS) bioassay or a 128-well diet tray assay. The HTS assay is based on a modification of Lewer et al. J. Nat. Prod. 2006, 69, 1506. BAW eggs were placed on top of artificial diet (100 μL) in each well of a 96-well microtiter plate. The diet was pretreated with test compounds (12 μg dissolved in 30 μL of DMSO-acetone-H2O mixture) layered on top of the diet using a liquid handling system and then allowed to dry for several hours. Infested plates were then covered with a layer of sterile cotton batting and the plate lid, and then held in the dark at 29° C. Mortality was recorded at 6 days post-treatment. Each plate had six replicates. The percent mortality was calculated from the average of the six replicates. In the case of the 128-well diet assay, three to five second instar BAW larvae were placed in each well (3 mL) of the diet tray that had been previously filled with 1 mL of artificial diet to which 50 ug/cm^2 of the test compound (dissolved in 50 μL of 90:10 acetone-water mixture) had been applied (to each of eight wells) and then allowed to dry. Trays were covered with a clear self-adhesive cover, and held at 25° C., 14:10 light-dark for six days. Percent mortality was recorded for the larvae in each well; activity in the eight wells was then averaged. In Table 4, under both the BAW HTS and BAW 50 headings, an “A” means that the compound was tested and at least 50 percent mortality was observed whereas, “B” means that either (1) the compound was tested and less than 50 percent mortality was observed or (2) the compound was not tested.

[2] = test system: beet armyworm (BAW; Spodoptera exigua: Lepidoptera); assay: 96-well microtiter plate-based high throughput (HTS) bioassay on beet armyworm (BAW HTS); assay type: in vivo; details: 144 h, read-out: BAW HTS
Method: as §1

`CCO[C@@H]1[C@@H](OC)[C@H](C)O[C@@H](OC(=O)Nc2ccc(/N=N/c3ccc(OC(F)(F)C(F)(F)F)cc3)cc2)[C@@H]1OC` [Compound 22, [4-(4-Pentafluoroethyloxyphenylazo)-phenyl]-carbamic acid (2S,3R,4R,5S,6S)-4-ethoxy-3,5-dimethoxy-6-methyl-tetrahydropyran-2-yl ester] was tested, and the pest or weed control at 50 µg/cm2, 50 µg/cm2 [1] was over 50% and the pest or weed control at 12 µg/well, 12 µg/well [2] was over 50%.
